Laboratory results: patent USRE37919E1, “Recombinant DNA method for production of parathyroid hormone” (The General Hospital Corporation, priority 1989, dated 2002)
Where two headings read alike, the source gives them in different places.

Columns and labels:
opossum kidney cells [1] = test: Binding to opossum kidney cells; conditions: FIG. 3
Description: (§1) The recombinant peptide produced as described in Example 1 above was tested for it binding to two cells types.

UMR cells = test: Cyclic AMP response of UMR tumor cells; assay type: cell-based, rat; conditions: FIG. 6, read-out: EC50 of cyclic AMP stimulation
From the text: (§2) Therefore, the recombinant peptide had PTH biological activity which is largely indistinguishable from that of a known active fragment.

[2] = system: UMR rat osteosarcoma cell line; test: Binding to UMR rat osteosarcoma cell line; conditions: FIG. 4
Description: as §1

opossum kidney cells [3] = assay type: cell-based
From the text: as §2

PTH receptors = molecular target: T1, PTH receptors (Homo sapiens, UniProt Q03431); conditions: literature; cited from earlier work
T1 sequence (Q03431 27-593): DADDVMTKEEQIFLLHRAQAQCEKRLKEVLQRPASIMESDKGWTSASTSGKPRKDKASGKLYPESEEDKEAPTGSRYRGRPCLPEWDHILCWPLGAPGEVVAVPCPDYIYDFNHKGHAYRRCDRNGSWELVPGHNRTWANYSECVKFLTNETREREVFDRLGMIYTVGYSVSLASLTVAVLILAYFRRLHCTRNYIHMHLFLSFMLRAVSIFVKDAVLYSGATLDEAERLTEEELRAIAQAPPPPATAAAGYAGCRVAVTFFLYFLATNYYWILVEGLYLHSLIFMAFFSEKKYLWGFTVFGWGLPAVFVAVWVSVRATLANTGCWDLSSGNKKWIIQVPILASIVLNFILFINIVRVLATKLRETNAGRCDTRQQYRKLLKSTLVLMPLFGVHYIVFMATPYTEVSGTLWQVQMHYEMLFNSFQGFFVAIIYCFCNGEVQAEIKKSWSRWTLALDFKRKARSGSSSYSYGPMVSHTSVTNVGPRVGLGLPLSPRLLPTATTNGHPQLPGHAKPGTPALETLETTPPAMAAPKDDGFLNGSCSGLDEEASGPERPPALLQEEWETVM

EC50 (UMR cells) | EC50 (opossum kidney cells [3]) | EC50 (opossum kidney cells [3]; opossum kidney cells, FIG. 5, read-out: EC50 of cyclic AMP stimulation) | Compound | half-maximal binding (opossum kidney cells [1]) | half-maximum value of binding [2] | PTH antagonist activity in vitro (PTH receptors)
~0.1 nM | ~4 nM | – | CC[C@H](C)[C@H](NC(=O)[C@H](CCC(=O)O)NC(=O)[C@H](CO)NC(=O)[C@@H](NC(=O)[C@@H](N)CO)C(C)C)C(=O)N[C@@H](CCC(N)=O)C(=O)N[C@@H](CC(C)C)C(=O)N[C@@H](CCSC)C(=O)N[C@@H](Cc1c[nH]cn1)C(=O)N[C@@H](CC(N)=O)C(=O)N[C@@H](CC(C)C)C(=O)NCC(=O)N[C@@H](CCCCN)C(=O)N[C@@H](Cc1c[nH]cn1)C(=O)N[C@@H](CC(C)C)C(=O)N[C@@H](CC(N)=O)C(=O)N[C@@H](CO)C(=O)N[C@@H](CCSC)C(=O)N[C@@H](CCC(=O)O)C(=O)N[C@@H](CCCNC(=N)N)C(=O)N[C@H](C(=O)N[C@@H](CCC(=O)O)C(=O)N[C@@H](Cc1c[nH]c2ccccc12)C(=O)N[C@@H](CC(C)C)C(=O)N[C@@H](CCCNC(=N)N)C(=O)N[C@@H](CCCCN)C(=O)N[C@@H](CCCCN)C(=O)N[C@@H](CC(C)C)C(=O)N[C@@H](CCC(N)=O)C(=O)N[C@@H](CC(=O)O)C(=O)N[C@H](C(=O)N[C@@H](Cc1c[nH]cn1)C(=O)N[C@@H](CC(N)=O)C(=O)N[C@@H](Cc1ccccc1)C(=O)O)C(C)C)C(C)C [synthetic PTH(1-34)] | about 1 nM | about 2 nM | –
– | – | – | PTH (3-34): synthetic analog of bovine PTH, recognized PTH antagonist (SEIQFMHNLGKHLSSMERVEWLRKKLQDVHNF; Parathyroid hormone; UniProt P01268 34-65, looked up, fragment) | – | – | potent PTH antagonist
~3 nM | – | ~10 nM | human parathyroid hormone 1-84 [recombinant hPTH(1-84)] | about 3 nM | about 10 nM | –
